The values below are quoted from earlier work in patent publication US20100273829A1, “Methods for Treating Disorders Associated with Hyperlipidemia in a Mammal” (priority 2005, published 2010).

Molecules are shown by their SMILES. “Also recorded” adds a separate entry of the source. Where two headings read alike, the source gives them in different places.

The conditions of data set [1]: ezetimibe 10 mg/day added to maximal statin regimen (80 mg/day), hoFH patients.

Consider `O=C(NC1CCN(CCCCC2(C(=O)NCC(F)(F)F)c3ccccc3-c3ccccc32)CC1)c1ccccc1-c1ccc(C(F)(F)F)cc1` [BMS-201038, N-(2,2,2-Trifluorethyl)-9-[4-[4-[[[4′-(trifluoromethyl)[1,1′biphenyl]-2-Yl]carbonyl]amino]-1-piperidinyl]butyl]9H-fluorene-9-carboxamide], for which the adverse events entry (patients, 25 mg/day BMS-201038 monotherapy) was “gastrointestinal perturbations, abnormalities in liver function, and hepatic steatosis; also recorded: gastrointestinal disorders, abnormalities in liver function and/or hepatic steatosis”. Consider `Cc1cc(C)c2c3ccccc3n(Cc3ccc([C@@H](C(=O)N[C@H](CO)c4ccccc4)C4CCCC4)cc3)c2n1` [implitapide, (2S)-2-cyclopentyl-2-[4-[(2,4-dimethyl-9H-pyrido[2,3-b]indol-9-yl)methyl]phenyl]-N-[(1S)-2-hydroxy-1-phenylethyl]ethanamide], for which the therapeutic efficacy result (clinical studies, implitapide 80 mg/day or greater) was “therapeutically effective”. For the same compound, for the setting “clinical studies, implitapide 80 mg/day or greater (80 mg/day, 160 mg/day)”, the adverse events result was “gastrointestinal disturbances, abnormalities in liver function, and hepatic steatosis; also recorded: gastrointestinal disorders, abnormalities in liver function and/or hepatic steatosis”. As for `O=C1[C@H](CC[C@H](O)c2ccc(F)cc2)[C@@H](c2ccc(O)cc2)N1c1ccc(F)cc1` [ezetimibe], the “total reduction of LDL-C levels” value in data set [1] is listed as 27%.
